Data from patent US9012487B2, “Bicyclo-pyrazoles active as kinase inhibitors” (Nerviano Medical Sciences S.r.l., priority 2006, dated 2015).
pIC50: −log10 of the molar value. Where a name gives a salt, the structure may show the parent alone.

Columns and labels:
[1] = target: T1, IGF1R (Homo sapiens, UniProt P08069); assay: Western blot analysis of receptor phosphorylation following stimulation with IGF-1 in MCF-7 human breast cancer cells; type: cell-based; details: MCF-7 starved cells stimulated with 10 nM IGF1; increasing concentrations of compound; Western blot band of pIGF1R (FIG. 2)
T1 construct: endogenous in cells; host or cells: MCF-7 (ATCC #HTB-22)
T1 sequence (P08069 31-1367): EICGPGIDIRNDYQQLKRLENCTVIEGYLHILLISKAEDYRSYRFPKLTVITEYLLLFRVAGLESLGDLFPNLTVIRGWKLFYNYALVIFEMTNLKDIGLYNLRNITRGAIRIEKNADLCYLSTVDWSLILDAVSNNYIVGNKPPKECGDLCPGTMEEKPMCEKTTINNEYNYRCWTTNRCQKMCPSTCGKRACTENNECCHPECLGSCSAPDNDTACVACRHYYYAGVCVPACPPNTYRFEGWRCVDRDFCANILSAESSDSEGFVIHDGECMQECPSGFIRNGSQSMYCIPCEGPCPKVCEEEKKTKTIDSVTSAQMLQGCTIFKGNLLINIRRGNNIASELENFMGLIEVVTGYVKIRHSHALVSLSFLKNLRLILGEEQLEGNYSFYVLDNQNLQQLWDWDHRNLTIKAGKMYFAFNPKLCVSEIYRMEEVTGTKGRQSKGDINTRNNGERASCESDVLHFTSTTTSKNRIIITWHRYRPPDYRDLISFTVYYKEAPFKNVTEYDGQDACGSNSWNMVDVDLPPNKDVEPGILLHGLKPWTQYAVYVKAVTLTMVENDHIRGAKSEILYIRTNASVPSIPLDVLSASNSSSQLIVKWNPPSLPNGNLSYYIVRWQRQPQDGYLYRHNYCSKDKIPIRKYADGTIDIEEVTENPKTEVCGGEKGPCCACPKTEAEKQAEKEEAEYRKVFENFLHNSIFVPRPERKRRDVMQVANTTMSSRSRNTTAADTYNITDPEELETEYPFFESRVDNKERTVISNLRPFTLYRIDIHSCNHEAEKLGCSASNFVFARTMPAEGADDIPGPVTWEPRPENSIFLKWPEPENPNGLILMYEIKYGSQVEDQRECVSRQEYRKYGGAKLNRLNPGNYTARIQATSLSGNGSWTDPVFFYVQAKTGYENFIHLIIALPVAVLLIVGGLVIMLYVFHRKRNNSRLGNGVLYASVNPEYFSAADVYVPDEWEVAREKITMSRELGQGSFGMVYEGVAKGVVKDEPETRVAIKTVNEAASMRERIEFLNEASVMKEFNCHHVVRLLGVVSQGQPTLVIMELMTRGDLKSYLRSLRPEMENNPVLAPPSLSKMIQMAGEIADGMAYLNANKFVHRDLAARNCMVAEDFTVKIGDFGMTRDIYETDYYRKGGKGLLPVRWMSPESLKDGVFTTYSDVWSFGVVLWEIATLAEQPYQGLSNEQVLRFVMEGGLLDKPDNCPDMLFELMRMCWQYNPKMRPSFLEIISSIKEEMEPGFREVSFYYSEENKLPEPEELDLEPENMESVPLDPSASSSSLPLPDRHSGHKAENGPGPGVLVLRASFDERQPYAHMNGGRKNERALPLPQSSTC
Experimental: Treatment of starved MCF-7 cells with 10 nM IGF1 induced receptor auto-phosphorylation as shown by the appearance of a more intense band of phosphorylated IGF1R (pIGF1R).
Western Blot Analysis of Receptor Phosphorylation Following Stimulation with IGF-1 in MCF-7 Human Breast Cancer Cells
MCF-7 cells (ATCC #HTB-22) were seeded in 12-well tissue culture plates at 2×10^5 cells/well in E-MEM medium (MEM+Earle's BSS+2 mM glutamine+0.1 mM non-essential amino acids)+10% FCS, and incubated overnight at 37° C., 5% CO2, 100% relative humidity. Cells were then starved by replacing E-MEM+10% FCS with E-MEM+0.1% BSA, and incubating overnight. After this incubation, wells were treated with desired concentrations of compound for 1 hour at 37° C., and were then stimulated with 10 nM recombinant human IGF-1 (Invitrogen, Carlsbad, Calif., USA) for 10 minutes at 37° C. Cells were then washed with PBS and lysed in 100 microL/well cell lysis buffer (M-PER Mammalian Protein Extraction Reagent [Product #78501, Pierce, Rockford, Ill., USA]+10 mM EDTA+Protease inhibitor cocktail [Sigma-Aldrich product #P8340]+phosphatase inhibitor cocktail [Sigma-Aldrich products #P2850+#P5726]). […]

[2] = system: IGF-1 induced S6 ribosomal protein phosphorylation; assay: Growth factor induced S6 ribosomal protein phosphorylation in primary human fibroblasts (NHDF); type: cell-based; details: normal human dermal fibroblasts (NHDF), stimulated with 10 nM IGF-1; read-out: Inhibition of IGF1R-induced S6 phosphorytation IC50
Experimental: Growth Factor Induced S6 Ribosomal Protein Phosphorylation in Primary Human Fibroblasts. Phosphorylation of S6 ribosomal protein in response to growth factor stimulation of normal human dermal fibroblasts (NHDF) was used to assess compound potency in inhibiting IGF-1 induced signal transduction in cells, and selectivity towards EGF and PDGF stimulus. NHDF cells obtained from PromoCell (Heidelberg, Germany), were maintained at 37° C. in a humidified atmosphere with 5% CO2 in complete Fibroblast Growth Medium (PromoCell). For assay, NHDF were seeded in 384-well tissue culture plates (clear- and flat-bottomed black plates; Matrix Technologies Inc., Hudson, N.H., USA) at a density of 5000 cells/well in serum-free medium containing 0.1% bovine serum albumin (BSA) and incubated for 5 days. […] Fluorescence images in the DAPI and Cy5™ channels were automatically acquired, stored and analysed using a Cellomics ArrayScan™ IV instrument (Cellomics, Pittsburgh, USA); the Cellomics Cytotoxicity Algorithm was used to quantify cytoplasmic fluorescence associated with phospho-S6 (Cy5™ signal parameter: “Mean Lyso Mass-pH”) for each cell in 10 fields/well, and eventually expressed as a mean population value. […]

[3] = target: T2, IGF-1R (Homo sapiens, UniProt P08069, M1123C/Y1125N); assay: Inhibition assay for IGF-1R kinase activity (Scintillation Proximity Assay); details: read-out: IGF1R IC50 (μM) Biochemical assay
T2 construct: made in house; host or cells: baculovirus; virus made in Sf21, protein expressed in H5 insect cells
T2 sequence (P08069 with tags, fused parts or gaps M1123C/Y1125N): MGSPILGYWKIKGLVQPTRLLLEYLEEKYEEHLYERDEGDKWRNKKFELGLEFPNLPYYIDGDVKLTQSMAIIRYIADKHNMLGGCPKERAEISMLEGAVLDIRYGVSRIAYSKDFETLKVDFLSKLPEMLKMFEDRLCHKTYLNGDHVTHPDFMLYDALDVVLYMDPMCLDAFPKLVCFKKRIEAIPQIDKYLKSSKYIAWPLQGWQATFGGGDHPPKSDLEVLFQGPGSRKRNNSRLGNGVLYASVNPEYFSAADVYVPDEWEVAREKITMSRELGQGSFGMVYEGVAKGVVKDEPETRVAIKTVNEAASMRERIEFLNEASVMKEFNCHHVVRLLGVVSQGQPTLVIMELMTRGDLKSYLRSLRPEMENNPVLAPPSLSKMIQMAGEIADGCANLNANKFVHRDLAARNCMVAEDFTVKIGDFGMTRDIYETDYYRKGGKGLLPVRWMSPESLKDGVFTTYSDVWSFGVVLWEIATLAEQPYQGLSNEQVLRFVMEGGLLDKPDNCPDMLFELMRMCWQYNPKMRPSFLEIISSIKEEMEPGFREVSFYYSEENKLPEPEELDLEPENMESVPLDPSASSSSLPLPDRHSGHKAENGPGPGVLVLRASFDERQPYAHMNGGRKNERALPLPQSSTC
Experimental: Human cDNA was used as template for amplification by polymerase chain reaction (PCR) of the whole cytoplasmic portion of IGF-1R (amino acid residues 960-1367), which includes the entire kinase domain. PCR was conducted using the forward primer sequence 5′-[…]-3′ (SEQ ID NO: 1) and the reverse primer sequence 5′-[…]-3′ (SEQ ID NO: 2). In order to facilitate subsequent cloning steps, both primers comprise a BamHI restriction endonuclease site sequence. The PCR product was cloned into a transfer vector for the baculovirus expression system, pVL1393 (Pharmingen), modified to include the sequence encoding the Glutathione S-transferase (GST) fusion protein and a PreScission cleavage site upstream of the inserted gene of interest. The GST-IGF-1R coding region corresponds to nucleic acid residues of 4168-6084. The final protein encoded by the open reading frame corresponds to a fusion protein of 639 amino acids, shown in SEQ ID NO: 3 (FIG. 1). […]
The inhibitory activity of putative kinase inhibitors and the potency of selected compounds was determined using a Scintillation Proximity Assay (SPA) in 96 well microtiter plate format. […] When a radioactively labeled phosphate moiety is transferred by the kinase to the biotinylated peptide, this stimulates light emission by the bead, which is measured in a scintillation counter. […]

IC50 [3] [µM]	SMILES	inhibition of IGF1R auto-phosphorylation [1]	pIC50 [2]
–	CN1CCN(c2ccc(C(=O)Nc3n[nH]c4c3CN(S(=O)(=O)c3cc(F)cc(F)c3)C4(C)C)c(F)c2)CC1 [Example 49, N-[5-(3,5-Difluoro-benzenesulfonyl)-6,6-dimethyl-1,4,5,6-tetrahydro-pyrrolo[3,4-c]pyrazol-3-yl]-2-fluoro-4-(4-methyl-piperazin-1-yl)-benzamide]	inhibition of IGF1-induced IGF1R auto-phosphorylation	–
0.34	CCOC(=O)n1nc(NC(=O)c2ccc(N3CCN(C)CC3)c(N(C)CCOC)c2)c2c1CNC2 [Example 24, 3-[3-[(2-Methoxy-ethyl)-methyl-amino]-4-(4-methyl-piperazin-1-yl)-benzoylamino]-5,6-dihydro-4H-pyrrolo[3,4-c]pyrazole-1-carboxylic acid ethyl ester hydrochloride]	–	5.52
–	CN1CCN(c2ccc(C(=O)Nc3n[nH]c4c3CN(S(=O)(=O)c3cc(F)cc(F)c3)C4(C)C)cc2)CC1 [Example 43, N-[5-(3,5-difluoro-benzenesulfonyl)-6,6-dimethyl-1,4,5,6-tetrahydro-pyrrolo[3,4-c]pyrazol-3-yl]-4-(4-methyl-piperazin-1-yl)-benzamide]	inhibition of IGF1-induced IGF1R auto-phosphorylation	–
